Measurements from US20160083391A1, “TRICYCLIC PIPERAZINE DERIVATIVE” (Sunovion Pharmaceuticals Inc., priority 2014, published 2016).

Test system: PDE1
Test: In vitro HTRF PDE1 inhibition assay
Format: biochemical
Conditions: HTRF cGMP assay, 100 nM cyclic GMP, PDE (1A3, 1B or 1C) with calmodulin, 45 minutes at 37° C.; isoform of the tabulated values not stated
Outline: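 Activities are given as IC50 bands (<1, 1-10, >10 μM) derived from a 665/615 nm time-resolved FRET readout after d2-cGMP/anti-cGMP cryptate detection. Enzymes PDE1A3, 1B or 1C plus calmodulin were incubated 45 min at 37 °C with 100 nM cGMP, 1% DMSO, CaCl2/MgCl2 Tris buffer pH 7.4.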

SMILES | IC50 [nM]
CC(C)Cn1ncc2c(=O)n3c(nc21)CN(c1cccc(Cl)c1)CC3 [Compound I-89, 8-(3-Chlorophenyl)-1-isobutyl-6,7,8,9-tetrahydropyrazino[1,2-a]pyrazolo[3,4-d]pyrimidin-4(1H)-one] | < 1000
O=c1c2cnn(C3CCCC3)c2nc2n1CCN(c1cccc(Cl)c1)C2 [Compound I-90, 8-(3-Chlorophenyl)-1-cyclopentyl-6,7,8,9-tetrahydropyrazino[1,2-a]pyrazolo[3,4-d]pyrimidin-4(1H)-one] | 1000 to 10000
CC(C)n1ncc2c(=O)n3c(nc21)CN(c1ccc(Cl)cc1)CC3 [Compound I-91, 8-(4-Chlorophenyl)-1-isopropyl-6,7,8,9-tetrahydropyrazino[1,2-a]pyrazolo[3,4-d]pyrimidin-4(1H)-one] | < 1000
CC(C)Cn1ncc2c(=O)n3c(nc21)CN(c1ccc(Cl)cc1)CC3 [Compound I-92, 8-(4-Chlorophenyl)-1-isobutyl-6,7,8,9-tetrahydropyrazino[1,2-a]pyrazolo[3,4-d]pyrimidin-4(1H)-one] | < 1000
O=c1c2cnn(C3CCCC3)c2nc2n1CCN(c1ccc(Cl)cc1)C2 [Compound I-93, 8-(4-Chlorophenyl)-1-cyclopentyl-6,7,8,9-tetrahydropyrazino[1,2-a]pyrazolo[3,4-d]pyrimidin-4(1H)-one] | < 1000
COc1ccccc1N1CCn2c(nc3c(cnn3C(C)C)c2=O)C1 [Compound I-94, 1-Isopropyl-8-(2-methoxyphenyl)-6,7,8,9-tetrahydropyrazino[1,2-a]pyrazolo[3,4-d]pyrimidin-4(1H)-one] | 1000 to 10000
O=c1c2cnn(C3CCCC3)c2nc2n1CCN(c1ccccc1)C2 [Compound I-95, 1-Cyclopentyl-8-phenyl-6,7,8,9-tetrahydropyrazino[1,2-a]pyrazolo[3,4-d]pyrimidin-4(1H)-one] | < 1000
COc1ccccc1N1CCn2c(nc3c(cnn3C3CCCC3)c2=O)C1 [Compound I-96, 1-Cyclopentyl-8-(2-methoxyphenyl)-6,7,8,9-tetrahydropyrazino[1,2-a]pyrazolo[3,4-d]pyrimidin-4(1H)-one] | 1000 to 10000
COc1cccc(N2CCn3c(nc4c(cnn4C(C)C)c3=O)C2)c1 [Compound I-97, 1-Isopropyl-8-(3-methoxyphenyl)-6,7,8,9-tetrahydropyrazino[1,2-a]pyrazolo[3,4-d]pyrimidin-4(1H)-one] | < 1000
COc1cccc(N2CCn3c(nc4c(cnn4C4CCCC4)c3=O)C2)c1 [Compound I-98, 1-Cyclopentyl-8-(3-methoxyphenyl)-6,7,8,9-tetrahydropyrazino[1,2-a]pyrazolo[3,4-d]pyrimidin-4(1H)-one] | < 1000
Cc1nn(C2CCCC2)c2nc3n(c(=O)c12)CCN(Cc1ccc(Cl)cc1)C3 [Compound I-111, 8-(4-Chlorobenzyl)-1-cyclopentyl-3-methyl-6,7,8,9-tetrahydropyrazino[1,2-d]pyrazolo[3,4-d]pyrimidin-4(1H)-one] | > 10000
COc1ccc(CN2CCn3c(nc4c(c(C)nn4C4CCCC4)c3=O)C2)cc1 [Compound I-112, 1-Cyclopentyl-8-(4-methoxybenzyl)-3-methyl-6,7,8,9-tetrahydropyrazino[1,2-d]pyrazolo[3,4-d]pyrimidin-4(1H)-one] | > 10000
O=C(c1ccc(Cl)cc1)N1CCn2c(nc3c(cnn3C3CCCC3)c2=O)C1 [Compound I-115, 8-(4-Chlorobenzoyl)-1-cyclopentyl-6,7,8,9-tetrahydropyrazino[1,2-a]pyrazolo[3,4-d]pyrimidin-4(1H)-one] | 1000 to 10000
COc1ccc(C(=O)N2CCn3c(nc4c(cnn4C4CCCC4)c3=O)C2)cc1 [Compound I-116, 1-Cyclopentyl-8-(4-methoxybenzoyl)-6,7,8,9-tetrahydropyrazino[1,2-a]pyrazolo[3,4-d]pyrimidin-4(1H)-one] | < 1000
COc1ccc(CN2CCn3c(nc4c(C5CCCC5)n[nH]c4c3=O)C2)cc1 [Compound I-123, 3-Cyclopentyl-6-(4-methoxybenzyl)-5,6,7,8-tetrahydropyrazino[1,2-a]pyrazolo[4,3-d]pyrimidin-10(1H)-one] | > 10000
O=c1c2[nH]nc(C3CCCC3)c2nc2n1CCN(Cc1ccc(Cl)cc1)C2 [Compound I-124, 6-(4-Chlorobenzyl)-3-cyclopentyl-5,6,7,8-tetrahydropyrazino[1,2-a]pyrazolo[4,3-d]pyrimidin-10(1H)-one] | 1000 to 10000
COc1ccc(CN2CCn3c(nc4c(ncn4C4CCCC4)c3=O)C2)cc1 [Compound I-125, 3-Cyclopentyl-6-(4-methoxybenzyl)-5,6,7,8-tetrahydropyrazino[1,2-a]purin-10(3H)-one] | > 10000
O=c1c2ncn(C3CCCC3)c2nc2n1CCN(Cc1ccc(Cl)cc1)C2 [Compound I-126, 6-(4-Chlorobenzyl)-3-cyclopentyl-5,6,7,8-tetrahydropyrazino[1,2-a]purin-10(3H)-one] | > 10000

SMILES | IC50 [nM]
COc1ccc(CN2CCn3c(nc4c(nnn4C4CCCC4)c3=O)C2)cc1 [Compound I-127, 3-Cyclopentyl-6-(4-methoxybenzyl)-5,6,7,8-tetrahydropyrazino[1,2-a][1,2,3]triazolo[4,5-d]pyrimidin-10(3H)-one] | > 10000
O=c1c2nnn(C3CCCC3)c2nc2n1CCN(Cc1ccc(Cl)cc1)C2 [Compound I-128, 6-(4-Chlorobenzyl)-3-cyclopentyl-5,6,7,8-tetrahydropyrazino[1,2-a][1,2,3]triazolo[4,5-d]pyrimidin-10(3H)-one] | > 10000
COc1ccc(CN2CCn3c(nc4c(C5CCCC5)noc4c3=O)C2)cc1 [Compound I-129, 3-Cyclopentyl-6-(4-methoxybenzyl)-7,8-dihydro-5H-isoxazolo[4,5-d]pyrazino[1,2-a]pyrimidin-10(6H)-one] | 1000 to 10000
O=c1c2onc(C3CCCC3)c2nc2n1CCN(Cc1ccc(Cl)cc1)C2 [Compound I-130, 6-(4-Chlorobenzyl)-3-cyclopentyl-7,8-dihydro-5H-isoxazolo[4,5-d]pyrazino[1,2-a]pyrimidin-10(6H)-one] | 1000 to 10000
COc1ccc(CN2CCn3c(nn4c(C5CCCC5)nnc4c3=O)C2)cc1 [Compound I-131, 3-Cyclopentyl-7-(4-methoxybenzyl)-8,9-dihydro-6H-pyrazino[2,1-c][1,2,4]triazolo[3,4-f][1,2,4]triazin-11(7H)-one] | < 1000
O=c1c2nnc(C3CCCC3)n2nc2n1CCN(Cc1ccc(Cl)cc1)C2 [Compound I-132, 7-(4-Chlorobenzyl)-3-cyclopentyl-8,9-dihydro-6H-pyrazino[2,1-c][1,2,4]triazolo[3,4-f][1,2,4]triazin-11(7H)-one] | < 1000
COc1ccc(CN2CCn3c(nn4c(C5CCCC5)ncc4c3=O)C2)cc1 [Compound I-133, 3-Cyclopentyl-7-(4-methoxybenzyl)-8,9-dihydro-6H-imidazo[5,1-f]pyrazino[2,1-c][1,2,4]triazin-11(7H)-one] | < 1000
O=c1c2cnc(C3CCCC3)n2nc2n1CCN(Cc1ccc(Cl)cc1)C2 [Compound I-134, 7-(4-Chlorobenzyl)-3-cyclopentyl-8,9-dihydro-6H-imdazo[5,1-f]pyrazino[2,1-c][1,2,4]triazin-11(7H)-one] | < 1000
CC(C)n1ncc2c(=O)n3c(nc21)CN(Cc1cccnc1)CC3 [Compound I-135, 1-Isopropyl-8-(pyridin-3-ylmethyl)-6,7,8,9-tetrahydropyrazino[1,2-a]pyrazolo[3,4-d]pyrimidin-4(1H)-one] | < 1000
CC(C)n1ncc2c(=O)n3c(nc21)CN(Cc1ccncc1)CC3 [Compound I-136, 1-Isopropyl-8-(pyridin-4-ylmethyl)-6,7,8,9-tetrahydropyrazino[1,2-a]pyrazolo[3,4-d]pyrimidin-4(1H)-one] | 1000 to 10000
CC(C)n1ncc2c(=O)n3c(nc21)CN(Cc1cccc(F)c1)CC3 [Compound I-137, 8-(3-Fluorobenzyl)-1-isopropyl-6,7,8,9-tetrahydropyrazino[1,2-a]pyrazolo[3,4-d]pyrimidin-4(1H)-one] | 1000 to 10000
CC(C)n1ncc2c(=O)n3c(nc21)CN(Cc1ccc(F)cc1)CC3 [Compound I-138, 8-(4-Fluorobenzyl)-1-isopropyl-6,7,8,9-tetrahydropyrazino[1,2-a]pyrazolo[3,4-d]pyrimidin-4(1H)-one] | > 10000
COc1cc(CN2CCn3c(nc4c(cnn4C(C)C)c3=O)C2)ccc1F [Compound I-139, 8-(4-Fluoro-3-methoxybenzyl)-1-isopropyl-6,7,8,9-tetrahydropyrazino[1,2-a]pyrazolo[3,4-d]pyrimidin-4(1H)-one] | > 10000
COc1ccc(CN2CCn3c(nc4c(cnn4C(C)C)c3=O)C2)cc1F [Compound I-140, 8-(3-Fluoro-4-methoxybenzyl)-1-isopropyl-6,7,8,9-tetrahydropyrazino[1,2-a]pyrazolo[3,4-d]pyrimidin-4(1H)-one] | < 1000
CCOc1cccc(N2CCn3c(nc4c(cnn4C(C)C)c3=O)C2)c1 [Compound I-141, 8-(3-Ethoxyphenyl)-1-isopropyl-6,7,8,9-tetrahydropyrazino[1,2-a]pyrazolo[3,4-d]pyrimidin-4(1H)-one] | < 1000
CC(C)n1ncc2c(=O)n3c(nc21)CN(c1ccc(F)cc1)CC3 [Compound I-142, 8-(4-Fluorophenyl)-1-isopropyl-6,7,8,9-tetrahydropyrazino[1,2-a]pyrazolo[3,4-d]pyrimidin-4(1H)-one] | < 1000
CC(C)n1ncc2c(=O)n3c(nc21)CN(c1cccnc1)CC3 [Compound I-143, 1-Isopropyl-8-(pyridin-3-yl)-6,7,8,9-tetrahydropyrazino[1,2-a]pyrazolo[3,4-d]pyrimidin-4(1H)-one] | 1000 to 10000
COc1cncc(N2CCn3c(nc4c(cnn4C(C)C)c3=O)C2)c1 [Compound I-144, 1-Isopropyl-8-(5-methoxypyridin-3-yl)-6,7,8,9-tetrahydropyrazino[1,2-a]pyrazolo[3,4-d]pyrimidin-4(1H)-one] | < 1000
